# Measured values as given in patent US20020107197A1, “Ligands for G protein coupled receptors and methods of using them” (priority 2000, published 2002).
# Bridges are numbered along the chain shown (N, C = ends). Where no end group is shown, it is not given here.
# Tests used:
# GPR4 [1] = target: T1, GPR4 (Homo sapiens, UniProt P46093); experiment: Radioligand binding to homogenates of GPR4-transfected CHO cells; conditions: cold competitors, GPR4-transfected CHO cell homogenates
# T1 construct: were used to generate full length GPR4, which was digested with EcoRI and Xba I and cloned into the pBs3HA vector; expressed in transfected cells
# T1 sequence (P46093 whole entry): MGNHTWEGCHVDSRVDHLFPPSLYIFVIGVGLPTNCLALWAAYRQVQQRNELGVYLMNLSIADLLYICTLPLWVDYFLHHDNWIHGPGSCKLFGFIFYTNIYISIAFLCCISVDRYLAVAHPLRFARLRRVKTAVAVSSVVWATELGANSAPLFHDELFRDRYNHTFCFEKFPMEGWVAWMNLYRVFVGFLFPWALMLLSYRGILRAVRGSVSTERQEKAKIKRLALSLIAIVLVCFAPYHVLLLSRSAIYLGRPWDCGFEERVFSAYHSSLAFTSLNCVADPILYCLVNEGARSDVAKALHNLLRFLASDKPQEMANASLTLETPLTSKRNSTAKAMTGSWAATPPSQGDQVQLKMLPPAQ
# Description: (§1) To characterize the binding of SPC and LPC to GPR4 and TDAG8, we conducted radioligand binding assays. CHO cells were chosen for GPR4 binding assays, since HEK293 cells express relatively high levels of endogenous GPR4. CHO cells stably transfected with empty vector or GPR4 were serum starved for 20 h, then collected after exposure to 2 mM EDTA in PBS. The pelleted cells were stored at −80° C. until use. Binding assays were performed essentially as described previously (Xu et al. (2000) Nat Cell Biol 2, 261-267), except binding was performed at 4° C. Briefly, frozen cells (10^6 cells/ml) were homogenized in a binding buffer. Assays were performed in 96-well plates in triplicate with 100 μl cell homogenate (equivalent to 10^5 cells/well). Different amounts of [^3H]SPC or [^3H]16:0-LPC were added to the cell homogenates in 50 μl of binding buffer, in the presence or absence of cold SPC or 16:0-LPC, or other competitors. The plates were incubated at 4° C. for 120 min, unless otherwise indicated. Cell-bound [^3H]SPC or [^3H]LPC was collected onto a filter (Printed Filtermat A, Wallac, Gaithersburg, Md.) using an automated cell harvester (HARVESTER 96, Tomtec, Orange, Conn.). Specific binding was calculated by subtraction of nonspecific binding (binding detected in the presence of 100-fold excess unlabeled SPC or 16:0-LPC) from the total binding.
# Cell homogenates were used for binding assays. Binding was conducted at 4° C. for 120 min or as indicated. [^3H]SPC and [^3H]16:0-LPC specifically bound to cell homogenates from GPR4-transfected CHO cells in a time-dependent manner and reached equilibrium after 60 min incubation at 4° C. […] The maximum binding capacities for SPC and 16:0-LPC were 996 fmole/10^5 cells for SPC and 1,528 fmole/10^5 cells for 16:0-LPC. […] Binding assays using [^3H]18:0-LPC gave similar results. We also tested the four glycosphingolipids, Psy, Glu-Sph, Gal-Cer, and Lac-Cer, for their ability to compete for the binding of [^3H]SPC and [^3H]16:0-LPC to GPR4.
# GPR4 [2] = target: T1, GPR4; experiment: SRE luciferase reporter in GPR4-transfected HEK293 cells; format: cell-based; conditions: GPR4 cotransfection
# Description: (§2) The serum-response element (SRE) reporter system is a sensitive assay for receptors of lipid factors (An et al. (1998) J Biol Chem 273, 7906-7910; An et al. (1999) Mol Pharmacol 55, 787-794). The SRE reporter system used herein (pSRE-Luc) was a gift from Dr. Songzhu An (UCSF), or may be purchased from Stratagene (La Jolla, Calif.). Both systems give identical results. HEK293 and HEK293GPR4 cells were cultured in RPMI1640 with 10% FBS in 10 cm dishes to ˜85% confluence. To the cells in each dish, pSRE-Luc (10 μg) was transfected in the presence of 60 μl LipofectAMINE reagent. Cells were seeded in 96-well plates 16 h after transfection, incubated for another 24 h in RPMI1640 with 10% FBS, and starved in serum-free medium for 16 h. SPC (dissolved in PBS to 10 mM) and other lipids (LPCs were dissolved in 70% ethanol. Other lipids were dissolved in PBS, 70-95% ethanol, or 100% MeOH) were diluted in serum free RPMI 1640 and added to the cells, followed by a 10 h incubation. Luciferase activity was measured in Microlite™ 1 plates (DYNEX Technologies, Inc., Virginia) using 60 μl of cell lysate and 20 μl luciferase substrate. PTX (100 ng/ml) was added during the 16 h serum starvation period and pcDNA1-C3 (encoding the C3-exoenzyme, 2 μg) was co-transfected with pSRE-Luc (10 μg). All experiments were performed in quadruplicate and were repeated at least three times. The Student's t test was performed using the GraphPad Instat software (San Diego, Calif.). p<0.05 was considered to be statistically significant.
# TDAG8 [3] = target: T2, TDAG8 (Homo sapiens, UniProt Q8IYL9); experiment: SRE luciferase reporter in TDAG8-transfected HEK293 cells; format: cell-based; conditions: TDAG8 cotransfection
# T2 construct: expressed in transfected cells
# T2 sequence (Q8IYL9 whole entry): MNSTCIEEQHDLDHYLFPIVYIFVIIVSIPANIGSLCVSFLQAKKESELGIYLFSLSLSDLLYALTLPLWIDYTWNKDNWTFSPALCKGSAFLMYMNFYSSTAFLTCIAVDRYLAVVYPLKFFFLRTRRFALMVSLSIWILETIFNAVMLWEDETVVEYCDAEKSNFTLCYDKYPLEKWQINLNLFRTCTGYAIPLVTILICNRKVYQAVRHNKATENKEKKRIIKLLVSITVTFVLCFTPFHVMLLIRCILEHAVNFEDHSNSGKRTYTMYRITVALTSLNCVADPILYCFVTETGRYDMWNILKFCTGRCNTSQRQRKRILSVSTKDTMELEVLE
# [4] = test system: vector-transfected HEK293 cells; experiment: SRE luciferase reporter in vector-transfected HEK293 cells; format: cell-based, human
# Description: as §2
# GPR4 [5] = target: T1, GPR4; experiment: ERK MAP kinase activation (phospho-ERK Western blot) in GPR4-infected Swiss 3T3 cells; format: cell-based; conditions: GPR4-ires-GFP vs GFP Swiss 3T3 cells; SPC and LPC 100 nM
# Description: MAP kinases are key signaling intermediates of DNA synthesis and cell proliferation. Swiss 3T3 cells were infected with MSCV GPR4-ires-GFP or MSCV ires-GFP, and subsequently cells sorted by FACS for positive expression of GFP as described previously (Kabarowski et al. (2000) Proc Natl Acad Sci USA. 97, 12109-12114). Cells were plated in 6-well plates in DMEM containing 5% FBS, serum-starved overnight, and then treated lipids in DMEM for the indicated times. Cells were lysed on ice in RIPA buffer containing 50 mM Tris-HCl, pH 7.5, 1% Nonidet P-40, 0.5% deoxycholate,0.1% SDS, 150 mM NaCl, 2 mM EGTA, 25 mM sodium fluoride, 1 mM sodium orthovanadate, and 1× protease inhibitors (Sigma P8340). Lysates containing equal amounts of protein were separated on 10% SDS-polyacrylamide gels and transferred onto nitrocellulose membranes. Antibodies against phosphorylated ERK1/2 (Cell Signaling Technologies; Beverly, Mass.) were used to probe the membrane and the ECL system (Amersham) was used for detection. To normalize the amounts of protein loaded in each lane, membranes were stripped and re-probed with antibodies against total ERK (Cell Signaling Technologies). In some experiments, cells were pretreated with 100 ng/ml PTX for 12-16 h prior to SPC and LPC stimulation.
# GPR4 [6] = target: T1, GPR4; experiment: Cell migration in modified Boyden chamber, GPR4-ires-GFP vs GFP Swiss 3T3 cells; format: cell-based; conditions: for chemokinetic assay: cell motility vs controls: lipid 100 nM in both upper and lower chambers, GFP or GFP-GPR4 Swiss 3T3 cells
# Description: Chemotaxis was measured in a modified Boyden chamber assay. Briefly, different lipids were added to the lower chambers. GPR4-ires-GFP- and GFP-Swiss 3T3 cells were serum starved for 4 h, trypsinized, and seeded in the upper chambers of Boyden-transwell plates (Corning Inc., Corning, N.Y.). The chambers were incubated for 6 to 8 h. The number of cells that migrated to the lower face of the membrane was counted in 4 random fields. Data are represented as the average ±SD of three independent experiments. For the chemokinetic assay, the same concentrations of lipids were added to both the upper and lower chambers. For Rho inhibition studies, C3-exoenxyme was transiently transfected into Swiss 3T3 cells and cell migration assays were performed 48 hours later.
# TDAG8 [7] = target: T2, TDAG8; experiment: Binding of phospholipids to TDAG8
# Description: as §1
# Using functional and binding assays, we have identified the ligands for TDAG8.
# TDAG8 [8] = target: T2, TDAG8; experiment: TDAG8 receptor internalization; format: cell-based
# From the text: G protein coupled receptors undergo agonist-dependent desensitization and internalization.
# HEY ovarian cancer cells = experiment: DNA synthesis / growth of HEY ovarian cancer cells with SPC and phage preparations; format: cell-based, human; conditions: phage mixed with SPC, 30 min incubation
# Description: To determine if these selected phage clones were capable of blocking a biological effect of SPC, we mixed phage preparations with SPC. After a 30 min incubation, this mixture was added to HEY cells and its effect on SPC-induced cell proliferation was tested. If a phage clone was carrying a specific sequence which binds to SPC, the addition of the phage to SPC could block the effect of SPC on HEY cells.
# GPR4 [9] = target: T1, GPR4; experiment: Internalization of GPR4-GFP in HEK293 cells (confocal microscopy); format: cell-based; conditions: 1 μM lipid, 37° C., GPR4-GFP HEK293 cells
# Description: pGPR4-GFP stably expressing HEK293 cells were cultured in 6 cm tissue culture dishes in RPMI1640 with 10% FBS. After 16-24 h serum starvation, cells were treated with different lipids at 37° C. for 2 h. Cells were washed with cold PBS and fixed with 4% paraformaldehyde in PBS. The subcellular localization of GPR4-GFP protein was visualized under a Leica TV confocal fluorescence microscope with a 63× oil immersion lens (Wetzler, Heidelberg, Germany). The excitation and emission wavelengths were 488 nm and 515-540 nm, respectively.
# G protein coupled receptors undergo agonist-dependent desensitization and internalization. When HEK293 cells are transfected with the pEGFP-N1 vector, GFP protein is expressed in the cytosol of the cells. The GPR4-GFP and TDAG8-GFP fusion proteins, on the other hand, was expressed only on the plasma membrane.
Compound,competition for binding of [3H]SPC and [3H]16:0-LPC to GPR4 (GPR4 [1]),transcriptional activation of SRE (in words) (GPR4 [2]),transcriptional activation of SRE (in words) (TDAG8 [3]),transcriptional activation of SRE (in words) [4],GPR4-dependent ERK activation (in words) (GPR4 [5]),cell migration in GPR4- vs. vector-transfected cells (in words) (GPR4 [6]),chemokinetic assay: cell motility vs controls (GPR4 [6]),binding to TDAG8 (TDAG8 [7]),TDAG8 receptor internalization (TDAG8 [8]),effect of phage on the growth inhibitory effect of SPC (HEY ovarian cancer cells),effect of phage on the growth inhibitory effect of SPC (HEY ovarian cancer cells; listed as clone 414),effect of phage on the growth inhibitory effect of SPC (HEY ovarian cancer cells; listed as phage 414),internalization of GPR4 (GPR4 [9])
"CCCCCCCCCCCCC/C=C/[C@@H](O)[C@@H](N)COP(=O)(O)O [S1P, sphingosine-1-phosphate]",not,not altered,not altered,induced significant transcriptional activation of SRE,activation was independent of GPR4 expression,did not alter cell migration,slightly inhibited,,,,,,
CCCCCCCCCCCCCCCCOC[C@@H](O)COP(=O)([O-])OCC[N+](C)(C)C [lyso-PAF],not,none of them induced significant transcriptional activation of SRE,,,,,,able to bind to TDAG8,induced TDAG8 receptor internalization,,,,
Cys-His-Thr-Gln-Ala-Asp-Ser-Cys (CHTQADSC; disulfide 1-8) [#414],,,,,,,,,,able to inhibit the growth inhibitory effect of SPC on HEY cells,inverted the growth inhibitory effect of SPC,blocked the growth inhibitory effect of SPC on DNA synthesis,
lysophosphatidic acid [LPA],not,not altered,not altered,induced significant transcriptional activation of SRE,,did not alter cell migration,did not show a significant effect,,,,,,
platelet activating factor [PAF],not,none of them induced significant transcriptional activation of SRE,,,activation was independent of GPR4 expression,did not alter cell migration,slightly enhanced,able to bind to TDAG8,induced TDAG8 receptor internalization,,,,not
